In ChEMBL document CHEMBL5131391, “One-pot three-component synthesis of novel pyrazolo[3,4-b]pyridines as potent antileukemic agents” (Eur J Med Chem, 2022):
Active and inactive are the calls of the source. The rule behind the calls is not given here.

What was measured:
MDA-MB-231 = assay: Cytostatic activity in human MDA-MB-231 cells assessed as tumor growth inhibition measured after 48 hrs by NCI protocol based SRB assay; type: functional
Hs-578T = assay: Antiproliferative activity against human Hs-578T cells assessed as growth inhibition measured after 48 hrs by NCI protocol based SRB assay; type: functional
Malme-3M = assay: Antiproliferative activity against human Malme-3M cells assessed as growth inhibition measured after 48 hrs by NCI protocol based SRB assay; type: functional
EKVX = assay: Cytostatic activity in human EKVX cells assessed as tumor growth inhibition measured after 48 hrs by NCI protocol based SRB assay; type: functional
HCC 2998 = assay: Cytostatic activity in human HCC 2998 cells assessed as tumor growth inhibition measured after 48 hrs by NCI protocol based SRB assay; type: functional
BT-549 = assay: Antiproliferative activity against human BT-549 cells assessed as growth inhibition measured after 48 hrs by NCI protocol based SRB assay; type: functional
SW-620 = assay: Cytostatic activity in human SW-620 cells assessed as tumor growth inhibition measured after 48 hrs by NCI protocol based SRB assay; type: functional
HT-29 = assay: Antiproliferative activity against human HT-29 cells assessed as growth inhibition measured after 48 hrs by NCI protocol based SRB assay; type: functional
PC-3 = assay: Cytostatic activity in human PC-3 cells assessed as tumor growth inhibition measured after 48 hrs by NCI protocol based SRB assay; type: functional
COLO 205 = assay: Antiproliferative activity against human COLO 205 cells assessed as growth inhibition measured after 48 hrs by NCI protocol based SRB assay; type: functional
SNB-19 = assay: Cytostatic activity in human SNB-19 cells assessed as tumor growth inhibition measured after 48 hrs by NCI protocol based SRB assay; type: functional
SN12C = assay: Antiproliferative activity against human SN12C cells assessed as growth inhibition measured after 48 hrs by NCI protocol based SRB assay; type: functional
SNB-75 = assay: Cytostatic activity in human SNB-75 cells assessed as tumor growth inhibition measured after 48 hrs by NCI protocol based SRB assay; type: functional
SK-MEL-2 [1] = assay: Antiproliferative activity against human SK-MEL-2 cells assessed as growth inhibition measured after 48 hrs by NCI protocol based SRB assay; type: functional
SK-MEL-5 = assay: Antiproliferative activity against human SK-MEL-5 cells assessed as growth inhibition measured after 48 hrs by NCI protocol based SRB assay; type: functional
K562 = assay: Cytostatic activity in human K562 cells assessed as tumor growth inhibition measured after 48 hrs by NCI protocol based SRB assay; type: functional
NCI-H23 [2] = assay: Cytostatic activity in human NCI-H23 cells assessed as tumor growth inhibition measured after 48 hrs by NCI protocol based SRB assay; type: functional
SF-539 = assay: Cytostatic activity in human SF-539 cells assessed as tumor growth inhibition measured after 48 hrs by NCI protocol based SRB assay; type: functional
SK-MEL-2 [3] = assay: Cytostatic activity in human SK-MEL-2 cells assessed as tumor growth inhibition measured after 48 hrs by NCI protocol based SRB assay; type: functional
OVCAR-4 = assay: Antiproliferative activity against human OVCAR-4 cells assessed as growth inhibition measured after 48 hrs by NCI protocol based SRB assay; type: functional
LOX IMVI = assay: Cytostatic activity in human LOX IMVI cells assessed as tumor growth inhibition measured after 48 hrs by NCI protocol based SRB assay; type: functional
NCI-H460 = assay: Cytostatic activity in human NCI-H460 cells assessed as tumor growth inhibition measured after 48 hrs by NCI protocol based SRB assay; type: functional
NCI-H226 = assay: Antiproliferative activity against human NCI-H226 cells assessed as growth inhibition measured after 48 hrs by NCI protocol based SRB assay; type: functional
CAKI-1 = assay: Cytostatic activity in human CAKI-1 cells assessed as tumor growth inhibition measured after 48 hrs by NCI protocol based SRB assay; type: functional
TK-10 [4] = assay: Cytostatic activity in human TK-10 cells assessed as tumor growth inhibition measured after 48 hrs by NCI protocol based SRB assay; type: functional
OVCAR-3 = assay: Cytostatic activity in human OVCAR-3 cells assessed as tumor growth inhibition measured after 48 hrs by NCI protocol based SRB assay; type: functional
MOLT-4 = assay: Antiproliferative activity against human MOLT-4 cells assessed as growth inhibition measured after 48 hrs by NCI protocol based SRB assay; type: functional
MDA-MB-435 = assay: Cytostatic activity in human MDA-MB-435 cells assessed as tumor growth inhibition measured after 48 hrs by NCI protocol based SRB assay; type: functional
A498 [5] = assay: Cytostatic activity in human A498 cells assessed as tumor growth inhibition measured after 48 hrs by NCI protocol based SRB assay; type: functional
A498 [6] = assay: Antiproliferative activity against human A498 cells assessed as growth inhibition measured after 48 hrs by NCI protocol based SRB assay; type: functional
ACHN = assay: Cytostatic activity in human ACHN cells assessed as tumor growth inhibition measured after 48 hrs by NCI protocol based SRB assay; type: functional
M14 = assay: Antiproliferative activity against human M14 cells assessed as growth inhibition measured after 48 hrs by NCI protocol based SRB assay; type: functional
SR = assay: Antiproliferative activity against human SR cells assessed as growth inhibition measured after 48 hrs by NCI protocol based SRB assay; type: functional
UACC-257 = assay: Cytostatic activity in human UACC-257 cells assessed as tumor growth inhibition measured after 48 hrs by NCI protocol based SRB assay; type: functional
RXF 393 = assay: Antiproliferative activity against human RXF 393 cells assessed as growth inhibition measured after 48 hrs by NCI protocol based SRB assay; type: functional
NCI-H23 [7] = assay: Antiproliferative activity against human NCI-H23 cells assessed as growth inhibition measured after 48 hrs by NCI protocol based SRB assay; type: functional
UO-31 = assay: Cytostatic activity in human UO-31 cells assessed as tumor growth inhibition measured after 48 hrs by NCI protocol based SRB assay; type: functional
HOP-62 = assay: Cytostatic activity in human HOP-62 cells assessed as tumor growth inhibition measured after 48 hrs by NCI protocol based SRB assay; type: functional
TK-10 [8] = assay: Antiproliferative activity against human TK-10 cells assessed as growth inhibition measured after 48 hrs by NCI protocol based SRB assay; type: functional
RS4-11 = assay: Downregulation of MEIS1 protein expression in human RS4-11 cells at 5 to 20 uM measured after 24 hrs by Western blot analysis; type: functional, cell-based; details: dose 5-20 µM
[9] = read-out: LC50 (the source's name)

N#Cc1c(-c2ccccc2)nc2c(c(-c3ccccc3)nn2-c2ccccc2)c1-c1ccc(O)cc1
TGI (MDA-MB-231): 3.31 µM | GI50 (Hs-578T): 1.41 µM | CC50 (Hs-578T; [9]): 43.8 µM | GI50 (Malme-3M): 1.62 µM | CC50 (Malme-3M; [9]): 9.06 µM | TGI (EKVX): 5.1 µM | TGI (HCC 2998): 3.47 µM | GI50 (BT-549): 2 µM | CC50 (BT-549; [9]): 9.92 µM | TGI (SW-620): 3.53 µM | GI50 (HT-29): 2.51 µM | CC50 (HT-29; [9]): 54.7 µM | TGI (PC-3): 3.78 µM | GI50 (COLO 205): 2.61 µM | CC50 (COLO 205; [9]): 58.2 µM | TGI (SNB-19): 3.8 µM | GI50 (SN12C): 1.64 µM | CC50 (SN12C; [9]): 5.63 µM | TGI (SNB-75): 7.28 µM | GI50 (SK-MEL-2 [1]): 2.39 µM | CC50 (SK-MEL-2 [1]; [9]): 41.7 µM | GI50 (SK-MEL-5): 1.75 µM | CC50 (SK-MEL-5; [9]): 5.79 µM | TGI (K562): > 100 µM | TGI (NCI-H23 [2]): 3.84 µM | TGI (SF-539): 2.76 µM | TGI (SK-MEL-2 [3]): 5.65 µM | GI50 (OVCAR-4): 1.95 µM | CC50 (OVCAR-4; [9]): 12.8 µM | TGI (LOX IMVI): 3.05 µM | TGI (NCI-H460): 3.26 µM | GI50 (NCI-H226): 1.97 µM | CC50 (NCI-H226; [9]): 37.3 µM | TGI (CAKI-1): 6.7 µM | TGI (TK-10 [4]): 8.19 µM | TGI (OVCAR-3): 4.45 µM | GI50 (MOLT-4): 2.49 µM | CC50 (MOLT-4; [9]): > 100 µM | TGI (MDA-MB-435): 3.71 µM | TGI (A498 [5]): 3.07 µM | GI50 (A498 [6]): 1.66 µM | CC50 (A498 [6]; [9]): 5.69 µM | TGI (ACHN): 5.89 µM | GI50 (M14): 2.27 µM | CC50 (M14; [9]): 23 µM | GI50 (SR): 2.95 µM | CC50 (SR; [9]): > 100 µM | TGI (UACC-257): 12.1 µM | GI50 (RXF 393): 1.03 µM | CC50 (RXF 393; [9]): 5.37 µM | GI50 (NCI-H23 [7]): 1.78 µM | CC50 (NCI-H23 [7]; [9]): 8.26 µM | TGI (UO-31): 4.17 µM | TGI (HOP-62): 4.49 µM | GI50 (TK-10 [8]): 2.89 µM | CC50 (TK-10 [8]; [9]): > 100 µM

Cc1ccc(-c2nc3c(c(-c4ccccc4)nn3-c3ccccc3)c(-c3ccc(O)cc3)c2C#N)cc1
Activity (RS4-11): Active
